In US5958981A, “γ-diketone compounds with inhibitory activity against platelet aggregation” (Meiji Seika Kabushiki Kaisha, priority 1994, dated 1999) one finds IC50 data, which are given here for six compounds.

Where a name gives a salt, the structure may show the parent alone. Some results are limits rather than exact numbers.

The assay deals with human PRP (platelet rich plasma), platelet aggregation. The assay is described as follows: Inhibitory activity against ADP-induced platelet aggregation in human PRP (platelet rich plasma). The class given is cell-based. The note with it: aggregation inducer ADP final concentration 5 μM, preincubated 2 min. Here is the method: Pharmacological Test: Inhibitory activity against platelet aggregation
The inhibitory activity of the compound according to the present invention against platelet aggregation was examined with human PRP (platelet rich plasma).
Nine volumes of a blood sample was taken out of the vein of a normal human with a syringe in which one volume of a 3.8% sodium citrate solution was charged. The blood sample was centrifuged at 170×g at room temperature for 10 min. The supernatant thus obtained was isolated as PRP. The residual blood sample that PRP had been taken out was centrifuged at 2,700×g for 15 minutes. The supernatant was then taken as platelet poor plasma (PPP).
A platelet aggregation test was conducted with an aggligometer (PAM-8C, manufactured by MEBANICKS Co., Ltd.). Compounds under test were dissolved in a 50% DMSO saline, a 50% methanol saline, or physiological saline. The compound under test and PRP were preincubated for 2 min. An aggregation inducer ADP (CHRONO-PAR REAGENTS 384 ADP, CHRONO-LOG Corp.) was used in the form of a dilution with saline so that the final concentration is 5 μM.
The anti-platelet aggregation activity was determined as an inhibition rate to platelet aggregation effect of ADP in the absence of a compound under test as follows. [formula]
Consider `CCCCOC(=O)COc1ccc(C(=O)CCC(=O)c2cc3c(s2)CCNC3)cc1OCC(=O)OCCCC` [Example 2, Di-n-butyl [[4-[1,4-dioxo-4-(4,5,6,7-tetrahydrothieno[3,2-c]pyridin-2-yl)butan-1-yl]-1,2-phenylene]dioxy]diacetate hydrochloride], for which it took 2000 nM to reach half-maximal inhibition (IC50).
To `CCCCOC(=O)COc1ccc(C(=O)CCC(=O)c2ccc(C(=N)N)cc2)cc1` [Example 5, n-Butyl 4-[4-(4-amidinophenyl)-1,4-dioxobutan-1-yl]phenoxyacetate hydroiodide] belongs 43 nM; to `O=C(O)COc1ccc(C(=O)CCC(=O)c2cc3c(s2)CCNC3)cc1OCC(=O)O` [Example 1, [[4-[1,4-Dioxo-4-(4,5,6,7-tetrahydrothieno[3,2-c]pyridin-2-yl)butan-1-yl]-1,2-phenylene]dioxy]diacetic acid trifluoroacetate], 130 nM.
In the case of `CCCCOC(=O)COc1ccc(C(=O)CCC(=O)c2ccc(C(=N)N)cc2)cc1OCC(=O)OCCCC` [Example 4, Di-n-butyl [[4-[4-(4-amidinophenyl)-1,4-dioxobutan-1-yl]-1,2-phenylene]dioxy]diacetate trifluoroacetate] it was 23 nM; in that of `N=C(N)c1ccc(C(=O)CCC(=O)c2ccc(OCC(=O)O)c(OCC(=O)O)c2)cc1` [Example 3, [[4-[4-(4-Amidinophenyl)-1,4-dioxobutan-1-yl]-1,2-phenylene]dioxy]diacetic acid trifluoroacetate], 17 nM; in that of `N=C(N)c1ccc(C(=O)CCC(=O)c2ccc(OCC(=O)O)cc2)cc1` [Example 6, 4-[4-(4-Amidinophenyl)-1,4-dioxobutan-1-yl]phenoxyacetic acid hydrochloride], below 100 nM.
